This is an account of results in patent publication US9981968B2, “Substituted pyrrolo[2,3-d]pyrimidines for the treatment of cancer and proliferative disorders” (Northwestern University, priority 2013, dated 2018).

pIC50: −log10 of the molar value.

For one test, the system named is OVCAR-8. The test is described as follows: SRB growth assay, OVCAR-8. Type of test: cell-based. The conditions noted are these: Homo sapiens, OVCAR-8 (Ovarian), 48 hours, read-out: Percent viability. The text has this:
(§1) Tested cell lines included, Leukemia: CCRF-CEM, HL-60(TB), MOLT-4, RPMI-8226 and SR; Non-Small Cell Lung: A549/ATCC, EKVX, HOP-62, HOP-92, NCI-H226, NCI-H23, NCI-H322M, NCI-H460 and NCI-H522; Colon: COLO 205, HCC-2998, HCT-116, HCT-15. HT29, KM12 and SW-620; CNS: SF-268, SF-295, SF-539, SNB-19, SNB-75 and U251; Melanoma: LOX IMVI, MALME-3M, M14, MDA-MB-435, SK-MEL-2, SK-MEL-28, SK-MEL-5, UACC-257 and UACC-62; Ovarian: IGR-OV1, OVCAR-3, OVCAR-4, OVCAR-5, OVCAR-8. NCI/ADR-RES and SK-OV-3; Renal: 786-0, A498, ACHN, CAKI-1, RXF 393, SN12C, TK-10 and UO-31; Prostate: DU-145 and PC-3; and Breast: MCF7, MDA-MB-231/ATCC, MDA-MB-468, HS 578T, BT-549 and T-47D.
(§2) The cells were cultured in RPMI1640 media supplemented with 10% Fetal Bovine Serum (FBS), 2 mM glutamine and with 5% CO2 and 37° C. For experiment, 5% of FBS and 50 ug/mL of gentamycin were used. Test articles were 10 μM of NUCL 381-3 or 10 μM NUCL 383-3. The positive control was 10 μM of doxorubicin.
(§3) Cells were plated in 96 well plates. The cells were plated in triplicate. Cells were plated at the densities based on NCI recommendation. Time zero cells (Tz) were fixed the following day with 50% or 80% ice cold Trichloracetic acid (TCA) and washed 5× with water. At 48 hours post addition of treatments, all remaining plates were fixed in 80% ice cold Trichloracetic acid (TCA) and washed 5× with water. After drying, one hundred microliters of 0.4% Sulphorhodamine B (SRB) in 1% acetic acid was added to each plate including the Tzero plate and incubated for 10 minutes at room temperature. After 5 additional washes with 1% acetic acid, plates were allowed to dry. One hundred microliters of Trizma base was added to each well and plates were read at 515 nm.
(§4) Percent of growth was calculated by the following formulas: [Ti/C]×100, where: Tz=absorbance readings for wells at time zero without treatment; C=absorbance readings of untreated cells (without treatment); and Ti=absorbance reading of wells with treatment.
A general note: Sulforhodamine B stains cellular protein and so reports cell mass.

The test system of another test is NCI-H322M. The test is described as follows: SRB growth assay, NCI-H322M. The test is classed as cell-based. The conditions noted are these: Homo sapiens, NCI-H322M (Non-Small Cell Lung), 48 hours, read-out: Percent viability.
Source text: as §1, §2, §3, §4

Another test relates to UO-31. The test is described as follows: SRB growth assay, UO-31. Type of test: cell-based. The conditions noted are these: Homo sapiens, UO-31 (Renal), 48 hours, read-out: Percent viability.
Source text: as §1, §2, §3, §4

The next test relates to MDA-MB-231. The test is described as follows: SRB growth assay, MDA-MB-231. Type of test: cell-based. Particulars: Homo sapiens, MDA-MB-231 (Breast), 48 hours, read-out: Percent viability.
Source text: as §1, §2, §3, §4

The test system of a further test is 786-0. The test is described as follows: SRB growth assay, 786-0. The conditions noted are these: Homo sapiens, 786-0 (Renal), 48 hours, read-out: Percent viability. The test is classed as cell-based.
Source text: as §1, §2, §3, §4

Another test concerns HOP-92. The test is described as follows: SRB growth assay, HOP-92. The test is classed as cell-based. The conditions noted are these: Homo sapiens, HOP-92 (Non-Small Cell Lung), 48 hours, read-out: Percent viability.
Source text: as §1, §2, §3, §4

Another test relates to K-562. The test is described as follows: SRB growth assay, K-562. Type of test: cell-based. Particulars: Homo sapiens, K562, K-562 (Leukemia), 48 hours, read-out: Percent viability.
Source text: as §1, §2, §3, §4

The test system of another test is OVCAR-4. The test is described as follows: SRB growth assay, OVCAR-4. Type of test: cell-based. The conditions noted are these: Homo sapiens, OVCAR-4 (Ovarian), 48 hours, read-out: Percent viability.
Source text: as §1, §2, §3, §4

A further test relates to UACC-62. The test is described as follows: SRB growth assay, UACC-62. Type of test: cell-based. The conditions noted are these: Homo sapiens, UACC-62 (Melanoma), 48 hours, read-out: Percent viability.
Source text: as §1, §2, §3, §4

A further test deals with NCI-H23. The test is described as follows: SRB growth assay, NCI-H23. The test is classed as cell-based. Particulars: Homo sapiens, NCI-H23 (Non-Small Cell Lung), 48 hours, read-out: Percent viability.
Source text: as §1, §2, §3, §4

Another test relates to U251. The test is described as follows: SRB growth assay, U251. The conditions noted are these: Homo sapiens, U-251, U251 (CNS), 48 hours, read-out: Percent viability. The test is classed as cell-based.
Source text: as §1, §2, §3, §4

A further test concerns SK-MEL-2. The test is described as follows: SRB growth assay, SK-MEL-2. The test is classed as cell-based. The conditions noted are these: Homo sapiens, SK-MEL-2 (Melanoma), 48 hours, read-out: Percent viability.
Source text: as §1, §2, §3, §4

Another test has as its system CAKI-1. The test is described as follows: SRB growth assay, CAKI-1. Type of test: cell-based. The conditions noted are these: Homo sapiens, CAKI-1 (Renal), 48 hours, read-out: Percent viability.
Source text: as §1, §2, §3, §4

The next test relates to NCI/ADR-RES. The test is described as follows: SRB growth assay, NCI/ADR-RES. The test is classed as cell-based. Particulars: Homo sapiens, NCI/ADR-RES (Ovarian), 48 hours, read-out: Percent viability.
Source text: as §1, §2, §3, §4

Another test concerns SR. The test is described as follows: SRB growth assay, SR. The conditions noted are these: Homo sapiens, SR (Leukemia), 48 hours, read-out: Percent viability. Type of test: cell-based.
Source text: as §1, §2, §3, §4

The subject of a further test is MM.1S cells. The test is described as follows: MTS CellTiter 96 cell proliferation assay, MM.1S. Type of test: cell-based, human. Here is the method:
Cell viability was assessed by MTS assay as follows.
The MTS CellTiter 96 assay is a colorimetric method to assess the number of viable cells based on the conversion of a tetrazolium compound (MTS) to a formazan product by the mitochondrial dehydrogenase enzyme of the cells. This assay is used to determine the number of viable cells remaining following a drug treatment in comparison to the number of viable cells that are only treated with the drug vehicle (control cells). The amount of formazan product in the control cells is normalized to 100% and the amount of formazan in the drug treated cells is expressed as a percentage of control. This is used to generate dose response curve and estimate the drug concentration that produced a 50% decrease in the number of viable cells.

The test system of test [1] is acute leukemia cell lines (THP-1, K562, Kasumi-1, and U937). The test is described as follows: Inhibition of viability of acute leukemia cell lines. Type of test: cell-based, human. The conditions noted are these: THP-1, K562, Kasumi-1, U937. Here is the method:
Compounds 381, 383, 409 (as test compounds) and Compound 501 (as a negative control) were administered to a variety of acute leukemia cell lines (THP-1. K562, Kasumi-1, and U937) in order to test their ability to inhibit cell growth as compared to 8-amino adenosine (8NH2-Ado) and 8-chloro adenosine (8Cl-Ado) (as positive controls) as in the previous Examples.

As for `COc1cccc2c1C(=O)c1c(O)c3c(c(O)c1C2=O)C[C@@](O)(C(=O)CO)C[C@@H]3O[C@H]1C[C@H](N)[C@H](O)[C@H](C)O1` [Doxorubicin, reference compound], the viability at 10 µM with OVCAR-8 came out at 15%; with NCI-H322M it was 42.6%; with UO-31 it was 28.2%; with MDA-MB-231, 41.8%; with 786-0, 17.6%; in the test with HOP-92 it was 98.5%. Further, the viability at 10 µM with K-562 was found to be 17.1%; in the test on OVCAR-4, 103%; in the test on UACC-62 it was 4.85%; in the test on NCI-H23 it was 27.6%; in the test on U251, 22%; in the test on SK-MEL-2, 11.6%. For the same compound, the values for the viability at 10 µM with CAKI-1, in the test with NCI/ADR-RES and with SR were 0%, 78.8% and 11.1%, respectively.
With `FC(F)(F)c1cn(CC2CCNCC2)c2ncnc(Cl)c12` [NUCC-0000381], the viability at 10 µM in the test on OVCAR-8 stood at 31.7%; in the test with NCI-H322M it was 68.1%; in the test with UO-31 it was 19.7%; with MDA-MB-231 it was 48.5%; in the test with 786-0 it was 94.2%; in the test with HOP-92 it was 56.8%. Also, the viability at 10 µM came out at 8.38% in the test with K-562; 53% in the test with OVCAR-4; 46.3% in the test on UACC-62; 42.3% with NCI-H23; 15.1% with U251; 106% with SK-MEL-2. Also, the viability at 10 µM in the test on CAKI-1 stood at 86.8%; in the test with NCI/ADR-RES, 93.3%; in the test with SR it was 16.7%. The decreasing cell proliferation result in the test on MM.1S cells (0.1-10 μM, MTS assay, FIG. 1, compared with 8-amino adenosine) was “as effective in decreasing cell proliferation as 8-amine-adenosine”. The negative-log IC50 (pIC50) with MM.1S cells (Homo sapiens, MM1.S, MTS cell proliferation assay, read-out: Estimated IC50) is 6.22. For the same compound, the cell viability entry in test [1] (FIGS. 11-14) is recorded as “reduce cell viability significantly”. In test [1] (versus 8NH2-Ado and 8Cl-Ado), the “inhibitory activity relative to positive controls” value was “inhibitory activities approaching those of 8NH2-Ado and 8Cl-Ado”.
For the compound `CS(=O)(=O)N1CCC(Cn2cc(C(F)(F)F)c3c(Cl)ncnc32)CC1` [NUCC-0000383], the viability at 10 µM with OVCAR-8 stood at 73.9%; in the test with NCI-H322M it was 53.8%; with UO-31, 3.37%; in the test on MDA-MB-231, 33.9%; in the test with 786-0 it was 69.5%; in the test with HOP-92, 97.6%. Also, the viability at 10 µM in the test with K-562 was 10.2%; with OVCAR-4, 97%; with UACC-62, 8.26%; with NCI-H23 it was 46.1%; in the test on U251 it was 2.47%; with SK-MEL-2, 14.7%. Besides, the viability at 10 µM with CAKI-1 amounted to 46.8%; with NCI/ADR-RES, 99%; in the test on SR, 37%.

For orientation: viability means a read-out of living cells in per cent, often relative to untreated cells. The pIC50 is −log10 of the IC50, conventionally taken in molar units.
